Legend:
[1] = xn = mol fraction of the nth substance listed; conditions: Maximal bubble pressure
[2] = refractive index (Na D-line) (dimensionless); xn = mol fraction of the nth substance listed; conditions: 101 kPa, Liquid

C[S+](C)[O-] [dimethyl sulfoxide] + O
Conditions | refractive index, [2] | surface tension liquid-gas, [1] [mN/m]
298.15 K, x1 = 0.0121 | 1.34 | 71
298.15 K, x1 = 0.0202 | 1.344 | 69.7
298.15 K, x1 = 0.1044 | – | 61.2
298.15 K, x1 = 0.1467 | 1.396 | –
298.15 K, x1 = 0.1979 | – | 56.7
298.15 K, x1 = 0.2455 | 1.4215 | –
298.15 K, x1 = 0.2507 | – | 55.4
298.15 K, x1 = 0.2959 | 1.4305 | –
298.15 K, x1 = 0.2999 | – | 53.3
298.15 K, x1 = 0.3187 | – | 53.1
298.15 K, x1 = 0.3213 | 1.4345 | –
298.15 K, x1 = 0.3536 | – | 52.6
298.15 K, x1 = 0.3713 | 1.4415 | –
298.15 K, x1 = 0.3802 | – | 52
298.15 K, x1 = 0.3967 | 1.4445 | –
298.15 K, x1 = 0.4191 | – | 51
298.15 K, x1 = 0.4301 | 1.4475 | –
298.15 K, x1 = 0.4523 | – | 50.3
298.15 K, x1 = 0.501 | – | 48.3
298.15 K, x1 = 0.59 | – | 46
298.15 K, x1 = 0.5964 | 1.461 | –
298.15 K, x1 = 0.7027 | – | 44
298.15 K, x1 = 0.7685 | 1.47 | –
298.15 K, x1 = 0.8088 | – | 42.6
298.15 K, x1 = 0.8945 | – | 42
303.15 K, x1 = 0.0121 | 1.339 | 70.1
303.15 K, x1 = 0.0202 | 1.3435 | 68.7
303.15 K, x1 = 0.1044 | – | 60.6
303.15 K, x1 = 0.1467 | 1.4005 | –
303.15 K, x1 = 0.1979 | – | 55.8
303.15 K, x1 = 0.2455 | 1.42 | –
303.15 K, x1 = 0.2507 | – | 54.5
303.15 K, x1 = 0.2959 | 1.4295 | –
303.15 K, x1 = 0.2999 | – | 52.4
303.15 K, x1 = 0.3187 | – | 52.3
303.15 K, x1 = 0.3213 | 1.4335 | –
303.15 K, x1 = 0.3536 | – | 51.7
303.15 K, x1 = 0.3713 | 1.4405 | –
303.15 K, x1 = 0.3802 | – | 51.2
303.15 K, x1 = 0.3967 | 1.443 | –
303.15 K, x1 = 0.4191 | – | 50
303.15 K, x1 = 0.4301 | 1.4455 | –
303.15 K, x1 = 0.4523 | – | 49.9
303.15 K, x1 = 0.501 | – | 47.4
303.15 K, x1 = 0.59 | – | 45.2
303.15 K, x1 = 0.5964 | 1.459 | –
303.15 K, x1 = 0.7027 | – | 43.4
303.15 K, x1 = 0.7685 | 1.468 | –
303.15 K, x1 = 0.8088 | – | 42.1
303.15 K, x1 = 0.8945 | – | 41.4
308.15 K, x1 = 0.0121 | 1.3395 | 69.2
308.15 K, x1 = 0.0202 | 1.343 | 67.9
308.15 K, x1 = 0.1044 | – | 59.8
308.15 K, x1 = 0.1467 | 1.4 | –
308.15 K, x1 = 0.1979 | – | 54.8
308.15 K, x1 = 0.2455 | 1.419 | –
308.15 K, x1 = 0.2507 | – | 53.2
308.15 K, x1 = 0.2959 | 1.428 | –
308.15 K, x1 = 0.2999 | – | 51.5
308.15 K, x1 = 0.3187 | – | 51.4
308.15 K, x1 = 0.3213 | 1.432 | –
308.15 K, x1 = 0.3536 | – | 50.6
308.15 K, x1 = 0.3713 | 1.4395 | –
308.15 K, x1 = 0.3802 | – | 50.3
308.15 K, x1 = 0.3967 | 1.442 | –
308.15 K, x1 = 0.4191 | – | 49.2
308.15 K, x1 = 0.4301 | 1.4445 | –
308.15 K, x1 = 0.4523 | – | 49.1
308.15 K, x1 = 0.501 | – | 46.7
308.15 K, x1 = 0.59 | – | 44.6
308.15 K, x1 = 0.5964 | 1.458 | –
308.15 K, x1 = 0.7027 | – | 42.6
308.15 K, x1 = 0.7685 | 1.466 | –
308.15 K, x1 = 0.8088 | – | 41.5
308.15 K, x1 = 0.8945 | – | 40.9
313.15 K, x1 = 0.0121 | – | 67.6
313.15 K, x1 = 0.0202 | – | 66.9
313.15 K, x1 = 0.1044 | – | 58.7
313.15 K, x1 = 0.1979 | – | 53.9
313.15 K, x1 = 0.2507 | – | 52.3
313.15 K, x1 = 0.2999 | – | 50.6
313.15 K, x1 = 0.3187 | – | 50.4
313.15 K, x1 = 0.3536 | – | 50
313.15 K, x1 = 0.3802 | – | 49.5
313.15 K, x1 = 0.4191 | – | 48.4
313.15 K, x1 = 0.4523 | – | 48.2
313.15 K, x1 = 0.501 | – | 46
313.15 K, x1 = 0.59 | – | 43.8
313.15 K, x1 = 0.7027 | – | 42.1
313.15 K, x1 = 0.8088 | – | 40.9
313.15 K, x1 = 0.8945 | – | 40.3
318.15 K, x1 = 0.0121 | – | 66.4
318.15 K, x1 = 0.0202 | – | 65.8
318.15 K, x1 = 0.1044 | – | 57.9
318.15 K, x1 = 0.1979 | – | 53
318.15 K, x1 = 0.2507 | – | 51.2
318.15 K, x1 = 0.3218 | – | 50.7
318.15 K, x1 = 0.3506 | – | 49.7
318.15 K, x1 = 0.3549 | – | 49.4
318.15 K, x1 = 0.3802 | – | 48.6
318.15 K, x1 = 0.4191 | – | 47.5
318.15 K, x1 = 0.4523 | – | 47.3
318.15 K, x1 = 0.501 | – | 45.1
318.15 K, x1 = 0.59 | – | 43.1
318.15 K, x1 = 0.7027 | – | 41.4
318.15 K, x1 = 0.8088 | – | 40.4
318.15 K, x1 = 0.8945 | – | 39.8
323.15 K, x1 = 0.0121 | – | 65.3
323.15 K, x1 = 0.0202 | – | 64.8
323.15 K, x1 = 0.1044 | – | 57
323.15 K, x1 = 0.1979 | – | 52.2
323.15 K, x1 = 0.2507 | – | 50.3
323.15 K, x1 = 0.3218 | – | 49.9
323.15 K, x1 = 0.3506 | – | 48.7
323.15 K, x1 = 0.3549 | – | 48.4
323.15 K, x1 = 0.3802 | – | 47.7
323.15 K, x1 = 0.4191 | – | 46.7
323.15 K, x1 = 0.4523 | – | 46.3
323.15 K, x1 = 0.501 | – | 44.4
323.15 K, x1 = 0.59 | – | 42.3
323.15 K, x1 = 0.7027 | – | 40.8
323.15 K, x1 = 0.8088 | – | 39.8
323.15 K, x1 = 0.8945 | – | 39.2
328.15 K, x1 = 0.0121 | – | 65.1
328.15 K, x1 = 0.0202 | – | 63.8
328.15 K, x1 = 0.1044 | – | 55.1
328.15 K, x1 = 0.1979 | – | 51.1
328.15 K, x1 = 0.2507 | – | 49.4
328.15 K, x1 = 0.3218 | – | 49
328.15 K, x1 = 0.3506 | – | 47.7
328.15 K, x1 = 0.3549 | – | 47.4
328.15 K, x1 = 0.3802 | – | 46.8
328.15 K, x1 = 0.4191 | – | 45.9
328.15 K, x1 = 0.4523 | – | 45.3
328.15 K, x1 = 0.501 | – | 43.5
328.15 K, x1 = 0.59 | – | 41.7
328.15 K, x1 = 0.7027 | – | 40.2
328.15 K, x1 = 0.8088 | – | 39.2
328.15 K, x1 = 0.8945 | – | 38.7
